Assay results reported in patent publication US10660874B2, “Ecteinamycin, compositions and uses thereof” (Wisconsin Alumni Research Foundation, priority 2014, dated 2020).
In brackets after ≈: the same amount, converted by molar mass.

How the values were obtained:
[1] = test system: S. aureus (ATCC #29213) cells; assay: Membrane depolarization assay (DiOC2(3), flow cytometry); format: cell-based; settings: 6 μg/mL, 15 minutes
Protocol: S. aureus (ATCC #29213) cells were grown to log phase (14 h) in Mueller Hinton Broth cation-adjusted (MHB50) and were diluted to 0.07 OD600 with media. One mL aliquots were transferred to 1.5 mL centrifuge tubes and treated with the following in triplicate: 10 μL DMSO (control), 10 μL of 600 μg/mL ecteinamycin, 10 μL of 3.2 mg/mL ecteinamycin (1), 10 μL of 500 μM carbonyl cyanide m-chlorophenythydrazone (CCCP), and 10 μL of 3.2 mg/mL rifampicin. Additionally, each tube received 10 μL of 3 mM DiOC2(3) (3,3′-diethyloxacarbocyanine iodide). The tubes were shaken for 15 minutes at room temperature. The cells were then analyzed with a FACSCalibur (BD Biosciences) flow cytometer and CellQuestPro software (BD Biosciences). Collected data represent the geometric means of fluorescence of 40,000 gated events.
Flow cytometry was used to determine if ecteinamycin, like other polyether ionophore antibiotics, depolarizes cell membranes. 3,3′-diethyloxacarbocyanine iodide (“DiOC2(3)”) fluoresces green in bacterial cells but shifts to red when the cell membrane is depolarized. Therefore, the ratio of red to green fluorescence is indicative of the membrane potential. S. aureus ATCC […] cells were treated with ecteinamycin at concentrations of 6 and 32 μg/mL.
All cells except the DMSO negative control were treated with DiOC2(3) and analyzed by flow cytometry. […]

[2] = Pharmacokinetic study in mice, ecteinamycin in plasma; format: in vivo; settings: female, FVB, mouse, oral 5 mg/kg vs retro-orbital IV 2.5 mg/kg, dose adjusted
Protocol: An Agilent 1100 LCMS system (ESI-MS positive mode) with a Phenomenex Kinetix C18 column (100×4.6 mm, 2.6 μm) at a flow rate of 0.5 mL/min was used for all analysis. The gradient was from 75% MeOH/25% 1 mM ammonium acetate in H2O to 93% MeOH/7% 1 mM ammonium acetate in H2O in 11 mins, then 93% MeOH/7% 1 mM ammonium acetate in H2O to 100% MeOH for 0.1 min and holding 100% MeOH for 3.9 mins.
A standard curve was constructed using known concentrations of ecteinamycin (1000, 500, 250, 125, 62.50, 31.25, 15.625, 7.8125, 3.90625 ng/mL) in blank human plasma. Linear regression analysis was performed on the peak areas, and the resulting linear equation was used to calculate the ecteinamycin concentrations of quality control (QC) standards of ecteinamycin in human plasma (800, 200, 25, 12.5 ng/mL). The limit of detection was determined to be 31.25 ng/mL, and the limit of quantification was determined to be 62.50 ng/mL.
Eight-to-nine-week-old FVB female mice weighing 20.5 to 25.6 g were used for all studies. […]
Ecteinamycin was formulated with polyethylene glycol (PEG) 300, 25 mM Tris (1:1), pH 8.9. […] Sample quantitation was determined by weighted (R^2) linear regression using a 9-point curve. […] The % oral bioavailability was calculated from the concentration of ecteinamycin (adjusted for dose) in plasma between oral and IV dose: [ecteinamycinoral]/[ecteinamycinIV]×100. […]

[3] = test system: MRSA (ATCC #33591); assay: MIC, dilution antimicrobial susceptibility test; format: cell-based, Methicillin-resistant Staphylococcus aureus; settings: Staphylococcus aureus, 18 h
Protocol: Ecteinamycin was tested for antibacterial activity against C. difficile (ATCC BAA-1870), MRSA (ATCC #33591), MSSA (ATCC #29213), E. coli (ATCC #25922), P. aeruginosa (ATCC #27853), and VRE (ATCC), and MICs were determined using a dilution antimicrobial susceptibility test for aerobic (MRSA, MSSA, E. coli, P. aeruginosa, and VRE) and anaerobic (C. difficile) bacteria. Ecteinamycin was dissolved in DMSO, serially diluted to 10 concentrations (0.0313-32 μg/mL), and tested in a 96-well plate. […] Ecteinamycin and vancomycin were tested in triplicate. Six untreated media controls were included on each plate. For MRSA, MSSA, E. coli, and P. aeruginosa, the plates were incubated at 33° C. for 18 h. For C. difficile, the plate was incubated at 36° C. for 48 h anaerobically and then read visually using a mirror apparatus. All manipulations to the plate were done inside the anaerobe chamber. The MIC was determined as the lowest concentration that inhibited visible growth.

[4] = Lethality of intravenous injection in mice; format: in vivo; settings: 5 mg/kg IV
Protocol: Eight-to-nine-week-old FVB female mice weighing 20.5 to 25.6 g were used for all studies. Animals were maintained in accordance with the American Association for Accreditation of Laboratory Care criteria. Animal studies were approved by the University of Wisconsin Animal Care Committee.
Ecteinamycin was formulated with polyethylene glycol (PEG) 300, 25 mM Tris (1:1), pH 8.9. Mice were treated orally at 5 mg/kg or by retro-orbital intravenous injection at 2.5 mg/kg. Retro-orbital intravenous injection at 5 mg/kg was lethal. After 30 mins and 1 h, approximately 400 μL of blood was collected from the chest cavity in BD microtainer tubes with lithium heparin. Blood was centrifuged at 10,000 rpm for 10 mins Fifty μL of supernatant was added to 200 μL of acetonitrile (containing 0.1% formic acid) in a new polypropylene tube, vortexed for 1 min, and centrifuged for 10 mins at 14,000 rpm at 4° C. One hundred μL was transferred to a 96 well polypropylene microplate, 100 μL of H2O was added, and the plate was covered and shaken for 1 min and placed in the autosampler for analysis. […] Sample quantitation was determined by weighted (R^2) linear regression using a 9-point curve. […] The % oral bioavailability was calculated from the concentration of ecteinamycin (adjusted for dose) in plasma between oral and IV dose: [ecteinamycinoral]/[ecteinamycinIV]×100. […]

[5] = test system: S. cerevisiae; assay: MIC against S. cerevisiae; format: cell-based; settings: Saccharomyces cerevisiae

## C=C1OC(=O)C(C(=O)CC2OC(C(C)C(O)C(CC)C(=O)C(C)(O)C3CCC(CC)(C4CCC(O)(C(C)OC)C(C)O4)O3)C(C)CC2C)=C1O (stereo not drawn) [ecteinamycin]
[1]
  membrane depolarization (ratio of red to green fluorescence): demonstrated membrane depolarization
[2]; after 30 mins
  bioavailability at 30 min: 10.9%
[2]; after 1 h
  bioavailability at 1 h: 29.3%
[3]
  MIC: 0.125 µg/mL (≈ 0.176 µM)
[4]
  lethality of retro-orbital intravenous injection: lethal
[5]
  MIC: 8 µg/mL (≈ 11.3 µM)
